The data set has as its system Red blood cells (RBCs). As to conditions: pH 7.4.

Experimental: The red blood cells (RBCs) were separated from the whole blood or anticoagulant solution by centrifuging the whole blood at 800 rcf for 15 min. The supernatant was discarded and the RBCs were washed thrice with phosphate buffered saline (PBS). The stock of RBCs was prepared by mixing three volumes of the centrifuged RBCs with 11 parts of the phosphate buffered saline (PBS) with pH adjusted to 7.4, 6.5, or 5.4, and 100 μL of this stock was used for 1 ml of the sample. RBCs were mixed with Triton X-100 (1%, w/v) (positive control); with phosphate buffered saline (PBS) with pH adjusted to 7.4, 6.5, or 5.4 (negative control); and respective concentrations of amines, PLH and protamine at different pH (7.4, 6.5, or 5.4). Samples were incubated at 37° C. for 24 h on a tube shaker. The samples were centrifuged at 800 rcf for 15 min to separate intact RBCs. The supernatant was collected and kept for 30 min at room temperature to oxidize hemoglobin (Hb) and then the absorbance of Oxy-Hb was measured spectrophotometrically at 540 nm. The relative hemolysis efficiency was calculated as the percentage of released hemoglobin by the samples to that by Triton X-100. The percent hemolysis was calculated using the equation of a straight line, y=mx+c, where % hemolysis (x)=[optical density (y)−negative control optical density (c)]/[(positive control optical density−negative control optical density)/100] […]

Take `N[C@@H](Cc1c[nH]cn1)C(=O)N[C@@H](Cc1c[nH]cn1)C(=O)N[C@@H](Cc1c[nH]cn1)C(=O)N[C@@H](Cc1c[nH]cn1)C(=O)N[C@@H](Cc1c[nH]cn1)C(=O)N[C@@H](Cc1c[nH]cn1)C(=O)O` [PLH, poly-L-histidine (PLH, 6-mer)]: the “% hemolysis versus pH” value is “maximum hemolytic properties at endosomal pH 5.4”. The result for protamine reads “more hemolytic properties at physiological pH 7.4”.

Source of the values: patent US9532956B2, “PH sensitive biodegradable polymeric particles for drug delivery” (Massachusetts Institute of Technology, priority 2009, dated 2017).
